The structures appear in SMILES notation.

This series can be described thus: gradient 5% acetonitrile 3 min, to 50% in 2 min, to 85% in 15 min, held 3 min, 100 µL/min. The note with it: column: Zorbax Extend-C18 2.1 x 50 mm; eluents: water / acetonitrile, 0.1% formic acid. In outline:
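Values are retention times taken from adduct peaks that software picked and an analyst inspected. The pure standards were run as mixtures of ~100 molecules on HPLC linked to a quadrupole time-of-flight mass spectrometer, in positive and negative ionization mode. A Zorbax Extend-C18 column (2.1 × 50 mm, 1.8 μm) was used at 100 μL/min with water and acetonitrile, each including 0.1% formic acid.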
As to `Cc1ccc(CN2CCN(C3CCN(C(=O)Nc4ccc(F)cc4F)CC3)C(=O)C2=O)cc1`, the RP-LC retention time stood at 748 s. As for `Cc1oc2c(c1C(=O)NCc1cccc(Br)c1)C1=NCCN1C=N2`, the RP-LC retention time was found to be 654 s.

For `Cc1ccc(F)c(NC(=O)c2sc(-c3cn(C)c4ncccc34)nc2C)c1`, the RP-LC retention time is 874 s. To `Cc1sc(NC(=O)c2ccc(S(=O)(=O)N(C)C)cc2)nc1-c1ccc2c(c1)NC(=O)CO2` belongs 842 s. The same measure for `CCS(=O)(=O)NCCc1csc(C)n1`: 572 s. To `CCCN1C(=O)c2c(C(=O)NCCc3ccccc3C)ncn2CC1(C)C(=O)NCCC(C)C` (centres undefined) belongs 900 s; to `CCN1CCN(C(=O)CN2C(=O)CSc3ccc(C(=O)N4CCCCC4)cc32)CC1`, 608 s; to `Cc1ccc(Nc2c(-c3cccc(Br)c3)nc3ccc(Cl)cn23)cc1`, 1130 s. As to `COc1cccc(CNC2=NCCNC23CCN(S(=O)(=O)c2c(C)cc(C)cc2C)CC3)c1`, the RP-LC retention time amounted to 826 s. Consider `COC(=O)c1cc2c(=O)n(CCN3CCOCC3)ccc2nc1C`, for which the RP-LC retention time was found to be 560 s. The same measure for `CCOC(=O)N1CCN(C(=O)CSc2nccc3c(OC)cccc23)CC1`: 810 s. The same measure for `O=C(Nc1ccnn1Cc1ccccc1)c1cc(=O)c2cc(Cl)ccc2o1`: 867 s. The compound `CC1CCCN(S(=O)(=O)c2ccc(-c3nnc(C(C)C)o3)o2)C1` (centres undefined) showed an RP-LC retention time of 977 s. To `O=C(CCNc1c(-c2cccc(F)c2)nc2cnccn12)NCc1ccco1` belongs 680 s; to `Cc1ccc(F)cc1NS(=O)(=O)c1cc(-c2[nH]ncc2C(=O)N(C)C)oc1C`, 706 s; to `COc1ccccc1-c1noc(Cn2ncn3nc(-c4cc(C)ccc4C)cc3c2=O)n1`, 1100 s.

On to `O=C(Cn1cccc1-c1nnc(-c2ccccc2)o1)N1CCc2ccccc21`, for which the RP-LC retention time was 1020 s. Take `CN(C)c1cccc(-c2nc(-c3ccc(CNC(=O)C4CC4)s3)no2)c1`: the RP-LC retention time was 680 s. Compound `O=C(Nc1cc(F)ccc1F)Nc1c(-c2ccccc2)nc2ccccn12` had an RP-LC retention time of 677 s.

`CCOC(=O)CCC(=O)Nc1ccc(S(=O)(=O)N2CCc3ccccc32)cc1` gave an RP-LC retention time of 834 s. To `CCc1nnc2ccc(-c3noc(-c4cc(Cl)ccc4F)n3)cn12` belongs 1010 s; to `Cc1ccc(NC(=O)Cn2cnc3nc(N4CCCC(C(=O)NC5CC5)C4)sc3c2=O)cc1F` (centres undefined), 703 s; to `COCc1noc(C2CN(C(=O)c3cn[nH]c3)CC23CCCC3)n1` (centres undefined), 637 s.

Compound `O=C(NCc1ccccc1F)C1CCCN(c2nc3ccccc3n(Cc3ccccc3)c2=O)C1` (centres undefined) returned an RP-LC retention time of 1150 s.

In turn, `Cc1ccc(N2CCN(C(=O)C3CCCN(c4nccc5sc(C)cc45)C3)CC2)cc1` (centres undefined) registered an RP-LC retention time of 747 s. The same measure for `O=C(Cn1nc(Cc2ccncc2)c2ccccc2c1=O)N1CCOCC1`: 787 s; for `CCc1nncn1C1CCN(S(=O)(=O)c2ccc(Cl)c(C)c2)CC1`: 716 s; for `Cc1ccc(-c2noc(CN3C(=O)COc4cc(C)ccc43)n2)cc1`: 1130 s. The compound `CN(Cc1ccco1)C(=O)c1ccc(-n2cc(CNC(=O)C3CC3)cn2)cc1` returned an RP-LC retention time of 676 s. To `CCn1c(SC)nnc1-c1nn(C)c2c1CN(C(=O)Cc1ccc(F)cc1)CC2` belongs 771 s.

With `CC(C)N1CCCn2cc(S(=O)(=O)Nc3ccc(F)cc3)cc2C1=O`, the RP-LC retention time came to 754 s.

As for `Cc1ccc(NS(=O)(=O)c2cc3n(c2)CCN(C)C3=O)cc1C`, the RP-LC retention time stood at 722 s. For the compound `CCc1cccc(NC(=O)N2[C@H]3CC[C@@H]2c2cncnc2C3)c1`, the RP-LC retention time stood at 741 s.

In turn, `COc1ccccc1-c1noc(Cn2ncn3nc(-c4ccc(Br)cc4)cc3c2=O)n1` had an RP-LC retention time of 1110 s. To `COCc1nc(C2CCN(C(=O)c3ccoc3)C2)no1` (centres undefined) belongs 644 s; to `O=C(OCn1nnc2ccccc2c1=O)c1ccccc1[N+](=O)[O-]`, 1030 s; to `CN(C)c1cccc(C(=O)Nc2cccc(-c3nnc4n3CCCC4)c2)c1`, 594 s. The same measure for `Cc1ccc2c(Nc3ccc(C#N)cc3)c(C(=O)N3CCCC3)cnc2n1`: 576 s. Turning to `Cn1nc(CNC(=O)c2ccc(Br)o2)c2ccccc21`, the RP-LC retention time turned out to be 795 s. To `CN1c2ccc(F)cc2C(=O)NC12CCN(C(=O)c1ccc(F)c(Cl)c1)CC2` belongs 823 s.

In turn, `Clc1ccc(-c2cc3c(N4CCN(c5ccccn5)CC4)nccn3n2)cc1` came in with an RP-LC retention time of 727 s. The same measure for `Cc1ccc(CNC(=O)C2(C)Cn3cnc(C(=O)NC4CCCCC4)c3C(=O)N2C2CC2)cc1` (centres undefined): 819 s; for `CCOc1ccc(-c2noc(Cc3nc(-c4ccccc4Cl)cs3)n2)cc1`: 1340 s; for `O=C(CCC1CCCCC1)Nc1nc(-c2ccc3c(c2)NC(=O)CO3)cs1`: 1020 s.

`O=C(c1ccc(F)c(Cl)c1)N1CCC(n2c(-c3ccoc3)nc3cccnc32)C1` (centres undefined): the RP-LC retention time worked out at 735 s. On to `CCOCCCNC(=O)c1cn(CC)nc1S(=O)(=O)N1CCN(c2cccc(Cl)c2)CC1`, for which the RP-LC retention time amounted to 1030 s. To `CCCCn1cnc2c(-c3ccccc3)cn(CC(=O)NC(C)CC)c2c1=O` (centres undefined) belongs 985 s; to `O=C(C1COc2ccccc2O1)N1CCc2cc(-c3ccno3)ccc21` (centres undefined), 991 s. For `COc1ccc(CC(=O)N2CCN(c3cc(C)n4c(C)nnc4n3)CC2)cc1OC`, the RP-LC retention time was determined as 578 s. The same measure for `CCc1ccc(-n2c(-c3ccc(Cl)cc3)cn3c4c(=O)n(C)c(=O)n(C)c4nc23)cc1`: 1150 s; for `Cc1cccc(-n2cc(C(=O)OCC(=O)OC(C)(C)C)c3ccccc3c2=O)c1`: 1210 s; for `CCc1noc(NC(C)=O)c1-c1ccc(C)c(S(=O)(=O)Nc2ccc(F)cc2)c1`: 822 s. To `O=C(Cn1ccnc1-c1ccnc(N2CCSCC2)c1)N1CCN(c2ccccc2)CC1` belongs 697 s; to `Cc1c2ccnc(C(N)=O)c2c(C)c2c1[nH]c1ccccc12`, 619 s. In turn, `Cc1cc(C(=O)NCC(C)C)c2cc(F)ccc2n1` gave an RP-LC retention time of 698 s. To `COc1cccc(S(=O)(=O)N2C[C@@H]3C[C@H]2C[C@@H]3NC(=O)c2cccnc2)c1` belongs 676 s; to `CC(C)C(=O)N1CC[C@H](CO)[C@H](NC(=O)C2CC2)C1`, 583 s. To `Cc1cccc(N2CCN(C(=O)c3csc(C(=O)NC4CC4)n3)CC2)c1` belongs 809 s; to `Cc1sc2ccn(CC(C)C)c(=O)c2c1C(=O)NCc1ccc(F)cc1F`, 983 s; to `CCc1noc(-c2ccc(-n3cnc(C(=O)N4CCc5ccccc5C4)c3)nc2)n1`, 924 s.

`O=C(CSc1nnc2c3cc(-c4ccc(F)cc4)nn3ccn12)Nc1ccc(F)cc1Cl` returned an RP-LC retention time of 940 s. Compound `CCc1nnc2ccc(NC(C)C)nn12` had an RP-LC retention time of 718 s. `Cc1cccc2nnc(N3CCCC(C(=O)Nc4ccc(N5CCOCC5)cc4)C3)n12` (centres undefined) displayed an RP-LC retention time of 625 s. `O=C(c1cc(C2CC2)[nH]n1)N1CCC(Cc2ccccc2)CC1` came in with an RP-LC retention time of 902 s.

With `CN(C)c1ccc(C(=O)Nc2cc(-c3ccccn3)no2)cc1`, the RP-LC retention time was 812 s.

Compound `CCN1C(=O)c2cccnc2Sc2cc(CNC(=O)COc3ccccc3)ccc21` gave an RP-LC retention time of 798 s. To `Cc1ccc2c(c1)sc1nncn12` belongs 749 s; to `Cc1ccc(-c2cc(C(=O)NC3CC3)n(C)c2)cc1`, 915 s. The same measure for `CCCC(=O)Nc1ccc2c(c1)CN(C(=O)Cc1ccc(F)cc1)C(C(=O)N(C)C)C2` (centres undefined): 672 s; for `COc1cccc(-c2ccc(=O)n(Cc3nc(-c4cccc(OC)c4)no3)n2)c1`: 682 s. To `Cc1ccc(-n2cc(C3=CCN(CC(=O)N4CCN(c5ccccn5)CC4)CC3)cn2)cc1` belongs 584 s.

With `CCCc1cc(N2CCN(C(=O)c3ccc4c(c3)OCO4)CC2)nc2nnc(CC)n12`, the RP-LC retention time came out at 650 s. To `CN(C)c1ncncc1N1CCC(C(=O)NCc2ccco2)CC1` belongs 588 s; to `O=c1c2cc3c(cc2nc(SCc2nc(-c4ccc(Cl)cc4)no2)n1CC1CCCO1)OCO3` (centres undefined), 1230 s.

As for `CC12CCC(C(=O)Nc3ccc(Cl)cn3)(OC1=O)C2(C)C` (centres undefined), the RP-LC retention time turned out to be 890 s. The same measure for `CCOc1ccc(S(=O)(=O)N2C[C@@H]3C[C@H](NC(=O)c4ccccc4)[C@H]2C3)cc1`: 900 s.

In the case of `CCn1c(N2CCC(C(=O)NCCCOC)CC2)cc(=O)n(C)c1=O`, the RP-LC retention time was found to be 610 s. To `CC1CCN(C(=O)C2=CN(c3ccc(F)cc3)c3ccccc3S2(=O)=O)CC1` belongs 907 s.

Turning to `O=S(=O)(Nc1ccc(F)c(F)c1)c1ccccc1-c1nc(-c2ccccc2)no1`, the RP-LC retention time is 1190 s.

(Values after the METLIN SMRT retention time set (Domingo-Almenara et al. 2019).)
